Reference: the supplement of paper PMC8617591

Columns and labels:
[1] = system: Mycobacterium tuberculosis Erdman (autoluminescent); assay: GRinf, maximum normalised growth rate inhibition (three-drug combination) (unitless (-1 to 1)); higher = less effect (negative = killing)
Protocol: (§1)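 DiaMOND equipotent three-drug combination dose responses (10 doses, 1.5- or 2-fold spacing, centred on IC90) against autoluminescent M. tuberculosis Erdman in 8 in vitro models. Read-out is OD600, or luminescence for the intracellular and dormancy models, normalised to untreated wells. Hill-fit Einf, AUC25 and GRinf are potency metrics; FIC50 and FIC90 are total Loewe fractional inhibitory concentrations as log2 (negative = synergy).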

[2] = system: Mycobacterium tuberculosis Erdman (autoluminescent); assay: total FIC50 (Loewe) at 50% inhibition, three-drug combination (log2); higher = more antagonistic
Protocol: as §1

[3] = system: Mycobacterium tuberculosis Erdman (autoluminescent); assay: Einf, fitted maximum growth inhibition of three-drug combination (fraction); higher = stronger maximal inhibition
Protocol: as §1

[4] = system: Mycobacterium tuberculosis Erdman (autoluminescent); assay: AUC25, normalised area under dose response up to IC25 (three-drug combination) (fraction (0-1)); higher = more potent at low dose
Protocol: as §1

[5] = system: Mycobacterium tuberculosis Erdman (autoluminescent); assay: total FIC90 (Loewe) at 90% inhibition, three-drug combination (log2); higher = more antagonistic
Protocol: as §1

COc1nc2ccc(Br)cc2cc1[C@@H](c1ccccc1)[C@@](O)(CCN(C)C)c1cccc2ccccc12 [bedaquiline] + O=[N+]([O-])c1cn2c(n1)OC[C@@H](OCc1ccc(OC(F)(F)F)cc1)C2 [pretomanid] + CO[C@H]1/C=C/O[C@@]2(C)Oc3c(C)c(O)c4c(O)c(c(/C=N/N5CCN(C6CCCC6)CC5)c(O)c4c3C2=O)NC(=O)/C(C)=C\C=C\[C@H](C)[C@H](O)[C@@H](C)[C@@H](O)[C@@H](C)[C@H](OC(C)=O)[C@@H]1C [rifapentine]
Details | AUC25, [4] | Einf, [3] | GRinf, [1] | total FIC50, [2] | total FIC90, [5]
in vitro model: acidic pH 5.7, time point: constant (~7 days, model-specific) | 0.116 | 0.943 | -0.512 | 0.516 | –
in vitro model: acidic pH 5.7, time point: terminal (~4-5 doublings, model-specific) | 0.0913 | 0.987 | -0.4 | 0.436 | 0.698
in vitro model: intracellular J774, time point: constant = terminal | – | 0.985 | -0.531 | – | 0.0139

Details | AUC25, [4] | Einf, [3] | GRinf, [1] | total FIC50, [2] | total FIC90, [5]
in vitro model: butyrate, time point: constant (~7 days, model-specific) | 0.088 | 0.933 | -0.0563 | 0.655 | 0.181
in vitro model: butyrate, time point: terminal (~4-5 doublings, model-specific) | 0.0789 | 0.971 | -0.0507 | 0.541 | 0.744
in vitro model: cholesterol 0.05 mM, time point: constant (~7 days, model-specific) | 0.106 | 0.751 | -0.236 | 0.454 | –
in vitro model: cholesterol 0.05 mM, time point: terminal (~4-5 doublings, model-specific) | 0.0678 | 0.929 | -0.207 | 0.994 | 0.888
in vitro model: cholesterol-high 0.2 mM, time point: constant (~7 days, model-specific) | 0.0733 | 0.918 | -0.21 | 1.12 | 1.36
in vitro model: cholesterol-high 0.2 mM, time point: terminal (~4-5 doublings, model-specific) | 0.0496 | 0.999 | -0.642 | 1.19 | 0.947
in vitro model: dormancy (butyrate + nitrate, low O2), time point: constant (~7 days, model-specific) | 0.0511 | 0.899 | 0.22 | 0.0544 | -0.43
in vitro model: dormancy (butyrate + nitrate, low O2), time point: terminal (~4-5 doublings, model-specific) | 0.032 | 0.983 | -0.177 | 0.0788 | -0.459
in vitro model: standard 7H9 glycerol, time point: constant = terminal | 0.072 | 0.922 | -0.0207 | -0.0622 | 0.308
in vitro model: valerate, time point: constant (~7 days, model-specific) | 0.0905 | 0.904 | -0.217 | 1.07 | –
in vitro model: valerate, time point: terminal (~4-5 doublings, model-specific) | 0.0466 | 0.947 | -0.0362 | 1.15 | 0.748

COc1nc2ccc(Br)cc2cc1[C@@H](c1ccccc1)[C@@](O)(CCN(C)C)c1cccc2ccccc12 [bedaquiline] + O=[N+]([O-])c1cn2c(n1)OC[C@@H](OCc1ccc(OC(F)(F)F)cc1)C2 [pretomanid] + CO[C@H]1/C=C/O[C@@]2(C)Oc3c(C)c(O)c4c(O)c(c(/C=N/N5CCN(C)CC5)c(O)c4c3C2=O)NC(=O)/C(C)=C\C=C\[C@H](C)[C@H](O)[C@@H](C)[C@@H](O)[C@@H](C)[C@H](OC(C)=O)[C@@H]1C [rifampicin]
Details | AUC25, [4] | Einf, [3] | GRinf, [1] | total FIC50, [2] | total FIC90, [5]
in vitro model: acidic pH 5.7, time point: constant (~7 days, model-specific) | 0.111 | 0.938 | -0.379 | 0.68 | –
in vitro model: acidic pH 5.7, time point: terminal (~4-5 doublings, model-specific) | 0.0826 | 0.993 | -0.38 | 0.724 | 0.613
in vitro model: intracellular J774, time point: constant = terminal | – | 0.978 | -0.416 | – | -0.222

Details | AUC25, [4] | Einf, [3] | GRinf, [1] | total FIC50, [2] | total FIC90, [5]
in vitro model: butyrate, time point: constant (~7 days, model-specific) | 0.106 | 0.931 | -0.0326 | 0.367 | 0.71
in vitro model: butyrate, time point: terminal (~4-5 doublings, model-specific) | 0.0986 | 0.977 | -0.041 | 0.237 | 0.69
in vitro model: cholesterol 0.05 mM, time point: constant (~7 days, model-specific) | 0.116 | 0.764 | -0.188 | 0.697 | –
in vitro model: cholesterol 0.05 mM, time point: terminal (~4-5 doublings, model-specific) | 0.0763 | 0.813 | 0.0382 | 0.812 | -0.454
in vitro model: cholesterol-high 0.2 mM, time point: constant (~7 days, model-specific) | 0.0584 | 0.921 | -0.229 | 1.22 | 1.66
in vitro model: cholesterol-high 0.2 mM, time point: terminal (~4-5 doublings, model-specific) | 0.0574 | 1 | -0.652 | 1.17 | 0.914
in vitro model: dormancy (butyrate + nitrate, low O2), time point: constant (~7 days, model-specific) | 0.0611 | 0.9 | 0.255 | 0.0572 | -0.559
in vitro model: dormancy (butyrate + nitrate, low O2), time point: terminal (~4-5 doublings, model-specific) | 0.0439 | 0.982 | -0.104 | 0.00851 | -0.259
in vitro model: standard 7H9 glycerol, time point: constant = terminal | 0.0794 | 0.937 | -0.1 | 0.14 | -0.371
in vitro model: valerate, time point: constant (~7 days, model-specific) | 0.103 | 0.897 | -0.11 | 1.04 | –
in vitro model: valerate, time point: terminal (~4-5 doublings, model-specific) | 0.0424 | 0.951 | -0.0825 | 1.09 | 0.566

COc1nc2ccc(Br)cc2cc1[C@@H](c1ccccc1)[C@@](O)(CCN(C)C)c1cccc2ccccc12 [bedaquiline] + O=[N+]([O-])c1cn2c(n1)OC[C@@H](OCc1ccc(OC(F)(F)F)cc1)C2 [pretomanid] + NC(=O)c1cnccn1 [pyrazinamide]
Details | AUC25, [4] | Einf, [3] | GRinf, [1] | total FIC50, [2] | total FIC90, [5]
in vitro model: acidic pH 5.7, time point: constant (~7 days, model-specific) | 0.0919 | 0.881 | -0.623 | 0.152 | -0.764
in vitro model: acidic pH 5.7, time point: terminal (~4-5 doublings, model-specific) | 0.0867 | 0.983 | -0.421 | 0.197 | 0.0646
in vitro model: intracellular J774, time point: constant = terminal | – | 0.972 | -0.386 | – | 0.176

Details | AUC25, [4] | Einf, [3] | GRinf, [1] | total FIC50, [2] | total FIC90, [5]
in vitro model: butyrate, time point: constant (~7 days, model-specific) | 0.119 | 0.946 | -0.193 | -0.0189 | 1.37
in vitro model: butyrate, time point: terminal (~4-5 doublings, model-specific) | 0.102 | 0.978 | -0.539 | 0.212 | 1.21
in vitro model: cholesterol 0.05 mM, time point: constant (~7 days, model-specific) | 0.115 | 0.748 | -0.231 | – | –
in vitro model: cholesterol 0.05 mM, time point: terminal (~4-5 doublings, model-specific) | 0.106 | 0.909 | -0.185 | 0.657 | –
in vitro model: cholesterol-high 0.2 mM, time point: constant (~7 days, model-specific) | 0.0759 | 0.934 | -0.252 | 0.548 | –
in vitro model: cholesterol-high 0.2 mM, time point: terminal (~4-5 doublings, model-specific) | 0.0678 | 0.998 | -0.58 | 0.646 | 0.318
in vitro model: dormancy (butyrate + nitrate, low O2), time point: constant (~7 days, model-specific) | 0.043 | 0.896 | 0.257 | -0.949 | -1.45
in vitro model: dormancy (butyrate + nitrate, low O2), time point: terminal (~4-5 doublings, model-specific) | 0.0578 | 0.983 | -0.0996 | -1.05 | -1.31
in vitro model: standard 7H9 glycerol, time point: constant = terminal | 0.0709 | 0.957 | -0.0903 | -0.132 | –
in vitro model: valerate, time point: constant (~7 days, model-specific) | 0.0952 | 0.866 | -0.0433 | 0.178 | –
in vitro model: valerate, time point: terminal (~4-5 doublings, model-specific) | 0.062 | 0.938 | -0.0146 | 0.143 | -0.0602
